In PubChem BioAssay AID588371 (Southern Research Specialized Biocontainment Screening …, 2011):
Several values for one entry are separate records, joined by “and”; a condition that tells them apart may be missing. Identical values can stand only once. Records with an inconclusive call do not appear. Activity calls are given as the source filed them. No rule for the calls is given here.

Tests used:
[1] = antiviral activity against West Nile virus in cells, dose response, cell-based, EC_1, probe candidates (AID 588371); settings: West Nile virus-infected cells, antiviral inhibition
[2] = test system: West Nile virus-infected cells, antiviral inhibition; test: as above

Row | SMILES | inhibition ([1]; at 100 µM (top of the series)) | other results
1 | O=C(CSc1nc2cccc(F)c2c(=O)n1-c1ccc(Cl)c(Cl)c1)Nc1ccc2c(c1)CCC2 | -2.48% (inactive) | 
2 | O=C(CSc1nc2ccccc2c(=O)n1-c1ccccc1)Nc1nc(-c2ccccc2)cs1 |  | inhibition ([1]; at 50 µM (top of the series)): 0.7% (inactive)
3 | O=C(CSc1nc2ccccc2c(=O)n1-c1ccccc1)NC1Cc2ccccc2C1 | -2% (inactive) | 
4 | O=C(CSc1nc2ccccc2c(=O)n1-c1ccccc1)NC1CCCc2ccccc21 (stereo not given) | -2% (inactive) | 
5 | O=C(CSc1nc2ccccc2c(=O)n1-c1ccc(Cl)c(Cl)c1)Nc1cccc2c1CCC2 |  | inhibition ([1]; at 50 µM (top of the series)): -1.69% (inactive)
6 | O=C(CSc1nc2ccccc2c(=O)n1-c1ccccc1)Nc1ccc2c(c1)CCC2 |  | IC50 [2]: 9.17 µM and 11.7 µM
7 | O=C(CCSc1nc2cccc(F)c2c(=O)n1-c1ccc(F)c(Br)c1)Nc1ccc2c(c1)CCC2 | -1.52% (inactive) | 
8 | O=C(CSc1nc2ccccc2c(=O)n1-c1cc(Cl)cc(Cl)c1)NC1CCc2ccccc21 (stereo not given) |  | inhibition ([1]; at 50 µM (top of the series)): 11.3% (inactive)
9 | O=C(CSc1nc2cccc(F)c2c(=O)n1-c1ccccc1)NC1CCCc2ccccc21 (stereo not given) | -0.94% (inactive) | 
10 | O=C(CSc1nc2ccccc2c(=O)n1-c1ccccc1)Nc1ncc([N+](=O)[O-])s1 | -1.85% (inactive) | 
11 | O=C(CCCCSc1nc2cccc(F)c2c(=O)n1-c1cc(F)c(F)c(F)c1)Nc1ccc2c(c1)CCC2 | -1.19% (inactive) | 
12 | O=C(CSc1nc2cccc(F)c2c(=O)n1-c1ccccc1)Nc1cccc2ccccc12 | -1.94% (inactive) | 
13 | O=C(CCSc1nc2ccccc2c(=O)n1-c1ccc(Cl)c(Cl)c1)Nc1ccc2c(c1)CCC2 | -2.58% (inactive) | 
14 | O=C(CCCSc1nc2ccccc2c(=O)n1-c1ccccc1)Nc1ccc2c(c1)CCC2 | -0.62% (inactive) | 
15 | O=C(CSc1nc2cccc(F)c2c(=O)n1-c1ccc(F)c(Br)c1)Nc1ccc2c(c1)CCC2 | -2.48% (inactive) | 
16 | O=C(CCCSc1nc2cccc(F)c2c(=O)n1-c1ccc(F)c(Br)c1)Nc1ccc2c(c1)CCC2 | -2.67% (inactive) | 
17 | O=C(CSc1nc2cccc(F)c2c(=O)n1-c1ccc(Cl)c(F)c1)Nc1ccc2c(c1)CCC2 |  | inhibition ([1]; at 50 µM (top of the series)): -1.63% (inactive)
18 | O=C(CCCCSc1nc2cccc(F)c2c(=O)n1-c1ccc(F)c(Br)c1)Nc1ccc2c(c1)CCC2 | -1.81% (inactive) | 
19 | O=C(CCCSc1nc2cccc(F)c2c(=O)n1-c1ccc(Cl)c(Cl)c1)Nc1ccc2c(c1)CCC2 | -2.38% (inactive) | 
20 | O=C(CCCCSc1nc2ccccc2c(=O)n1-c1ccccc1)Nc1ccc2c(c1)CCC2 | 18.5% (inactive) | 

Row | SMILES | inhibition ([1]; at 100 µM (top of the series)) | other results
21 | O=C(CSc1nc2cccc(F)c2c(=O)n1-c1ccccc1)Nc1cccc2c1CCC2 | -1.2% (inactive) | 
22 | O=C(CSc1nc2cccc(F)c2c(=O)n1-c1cc(F)c(F)c(F)c1)Nc1ccc2c(c1)CCC2 |  | IC50 [2]: 16.5 µM
23 | O=C(CCCCSc1nc2cccc(F)c2c(=O)n1-c1ccc(F)c(F)c1)Nc1ccc2c(c1)CCC2 | 0.09% (inactive) | 
24 | O=C(CSc1nc2ccccc2c(=O)n1-c1ccccc1)Nc1cccc(-c2ccccc2)c1 | 0.04% (inactive) | 
25 | O=C(CSc1nc2cccc(F)c2c(=O)n1-c1ccc(F)c(F)c1)Nc1ccc2c(c1)CCC2 |  | inhibition ([1]; at 50 µM (top of the series)): 1.72% (inactive)
26 | O=C(CSc1nc2ccccc2c(=O)n1-c1cc(Cl)cc(Cl)c1)Nc1ccc2c(c1)CCC2 |  | IC50 [2]: 2.73 µM
27 | O=C(CSc1nc2ccccc2c(=O)n1-c1ccccc1)NC1CCc2ccccc21 (stereo not given) | -0.61% (inactive) | 
28 | O=C(CSc1nc2ccccc2c(=O)n1-c1ccccc1)Nc1nc2ccc([N+](=O)[O-])cc2s1 | -2.6% (inactive) | 
29 | O=C(CSc1nc2ccccc2c(=O)n1-c1ccccc1)N1CCCCCC1 | -1.69% (inactive) | 
30 | O=C(CSc1nc2ccccc2c(=O)n1-c1ccccc1)Nc1nccs1 | -0.12% (inactive) | 
31 | O=C(CCSc1nc2cccc(F)c2c(=O)n1-c1cc(F)c(F)c(F)c1)Nc1ccc2c(c1)CCC2 |  | inhibition ([1]; at 50 µM (top of the series)): 9.08% (inactive)
32 | O=C(CSc1nc2cccc(F)c2c(=O)n1-c1ccccc1)Nc1ccc2c(c1)CCC2 |  | inhibition ([1]; at 50 µM (top of the series)): -0.4% (inactive)
33 | O=C(CSc1nc2cccc(F)c2c(=O)n1-c1ccccc1)NC1Cc2ccccc2C1 | 0.89% (inactive) | 
34 | Cc1nc2cc(NC(=O)CSc3nc4ccccc4c(=O)n3-c3ccccc3)ccc2s1 | 2.35% (inactive) | 
35 | O=C(CSc1nc2cccc(F)c2c(=O)n1-c1ccccc1)Nc1ccc2ncsc2c1 |  | inhibition ([1]; at 50 µM (top of the series)): 1.43% (inactive)
36 | Cc1csc(NC(=O)CSc2nc3ccccc3c(=O)n2-c2ccccc2)n1 | -3.31% (inactive) | 
37 | O=C(CSc1nc2ccccc2c(=O)n1-c1ccccc1)Nc1nc2cc(Cl)ccc2o1 | 8.31% (inactive) | 
38 | O=C(CCCCSc1nc2cccc(F)c2c(=O)n1-c1ccccc1)Nc1ccc2c(c1)CCC2 | -1.05% (inactive) | 
39 | O=C(CCSc1nc2cccc(F)c2c(=O)n1-c1ccc(F)c(F)c1)Nc1ccc2c(c1)CCC2 | -1.56% (inactive) | 
40 | O=C(CSc1nc2ccccc2c(=O)n1-c1ccc(Cl)c(Cl)c1)Nc1ccc2c(c1)CCC2 |  | IC50 [2]: 8.09 µM

Row | SMILES | inhibition ([1]; at 100 µM (top of the series)) | other results
41 | O=C(CSc1nc2ccccc2c(=O)n1-c1ccccc1)Nc1ccc2ncsc2c1 | -0.65% (inactive) | 
42 | O=C(CSc1nc2ccccc2c(=O)n1-c1cc(Cl)cc(Cl)c1)NC1Cc2ccccc2C1 | -3.26% (inactive) | 
43 | O=C(CCCCSc1nc2cccc(F)c2c(=O)n1-c1ccc(Cl)c(Cl)c1)Nc1ccc2c(c1)CCC2 | -1.71% (inactive) | 
44 | O=C(CSc1nc2cccc(F)c2c(=O)n1-c1ccccc1)Nc1ccc2c(c1)OCO2 | 0.09% (inactive) | 
45 | O=C(CSc1nc2ccccc2c(=O)n1-c1ccc(Cl)c(Cl)c1)Nc1ccc2c(c1)OCO2 | -2.42% (inactive) | 
46 | O=C(CSc1nc2ccccc2c(=O)n1-c1ccccc1)Nc1cccc2c1CCC2 | 1.83% (inactive) | 
47 | O=C(CCCSc1nc2cccc(F)c2c(=O)n1-c1ccc(F)c(F)c1)Nc1ccc2c(c1)CCC2 | -2.48% (inactive) | 
48 | O=C(CCCCSc1nc2cccc(F)c2c(=O)n1-c1ccc(Cl)c(F)c1)Nc1ccc2c(c1)CCC2 | -0.34% (inactive) | 
49 | O=C(CCSc1nc2cccc(F)c2c(=O)n1-c1ccc(Cl)c(Cl)c1)Nc1ccc2c(c1)CCC2 | -1.05% (inactive) | 
50 | O=C(CSc1nc2ccccc2c(=O)n1-c1ccccc1)Nc1cccc2ccccc12 | -1.05% (inactive) | 
51 | O=C(CSc1nc2ccccc2c(=O)n1-c1ccccc1)Nc1ccc2c(c1)OCO2 | 2.32% (inactive) | 
52 | O=C(CCCSc1nc2cccc(F)c2c(=O)n1-c1cc(F)c(F)c(F)c1)Nc1ccc2c(c1)CCC2 | -2.94% (inactive) | 
53 | O=C(CCCSc1nc2cccc(F)c2c(=O)n1-c1ccccc1)Nc1ccc2c(c1)CCC2 | -2.02% (inactive) | 
54 | Cc1cnc(NC(=O)CSc2nc3ccccc3c(=O)n2-c2ccccc2)s1 |  | inhibition ([1]; at 50 µM (top of the series)): -1.61% (inactive)
55 | O=C(CSc1nc2ccccc2c(=O)n1-c1ccc(F)c(Cl)c1)Nc1cccc2ccccc12 | -1.32% (inactive) | 
56 | O=C(CSc1nc2ccccc2c(=O)n1-c1cc(Cl)cc(Cl)c1)Nc1nccs1 |  | inhibition ([1]; at 50 µM (top of the series)): 18.5% (inactive)
57 | O=C(CSc1nc2ccccc2c(=O)n1-c1ccc(Cl)c(Cl)c1)Nc1cccc2ccccc12 | -1.85% (inactive) | 
58 | O=C(CSc1nc2ccccc2c(=O)n1-c1cc(Cl)cc(Cl)c1)Nc1cccc2ccccc12 | -0.85% (inactive) | 
59 | O=C(CCSc1nc2cccc(F)c2c(=O)n1-c1ccc(Cl)c(F)c1)Nc1ccc2c(c1)CCC2 | 3.09% (inactive) | 
60 | O=C(CCCSc1nc2cccc(F)c2c(=O)n1-c1ccc(Cl)c(F)c1)Nc1ccc2c(c1)CCC2 | -2.66% (inactive) | 
